# Experimental data: the supplement of paper PMC10307832
# What was measured:
# Assay in all cases: relative viability (nuclei count vs DMSO), 5 days (fraction); higher = more cells survive
# BEN = test system: BEN
# How it was run: (§1)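 Relative viability is defined as nuclei in treated wells over nuclei in vehicle wells. Duplicate plates were run and medians reported. Lung cancer cell lines in 1536-well plates were dosed by pin tool one day after seeding, with one drug or with a fixed anchor-drug dose plus five library-drug doses (not always all listed) in √10 steps, and nuclei were counted after 5 days.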
# EKVX = test system: EKVX
# How it was run: as §1
# HARA = test system: HARA
# How it was run: as §1
# HCC-366 = test system: HCC-366
# How it was run: as §1
# HCC-827 = test system: HCC-827
# How it was run: as §1
# LOU-NH91 = test system: LOU-NH91
# How it was run: as §1
# NCI-H1355 = test system: NCI-H1355
# How it was run: as §1
# NCI-H1395 = test system: NCI-H1395
# How it was run: as §1
# NCI-H1437 = test system: NCI-H1437
# How it was run: as §1
# NCI-H1734 = test system: NCI-H1734
# How it was run: as §1
# NCI-H1792 = test system: NCI-H1792
# How it was run: as §1
# NCI-H1993 = test system: NCI-H1993
# How it was run: as §1
# NCI-H2009 = test system: NCI-H2009
# How it was run: as §1
# NCI-H2087 = test system: NCI-H2087
# How it was run: as §1
# NCI-H2170 = test system: NCI-H2170
# How it was run: as §1
# NCI-H2405 = test system: NCI-H2405
# How it was run: as §1
# NCI-H647 = test system: NCI-H647
# How it was run: as §1
# NCI-H661 = test system: NCI-H661
# How it was run: as §1
# SK-LU-1 = test system: SK-LU-1
# How it was run: as §1
# SK-MES-1 = test system: SK-MES-1
# How it was run: as §1
smiles,measurement,setting,value
CCN(CC)CCCCNc1ncc2cc(-c3cc(OC)cc(OC)c3)c(NC(=O)NC(C)(C)C)nc2n1 + CS(=O)(=O)CCNCc1ccc(-c2ccc3ncnc(Nc4ccc(OCc5cccc(F)c5)c(Cl)c4)c3c2)o1 [Lapatinib] (partner 2 µM),relative viability,BEN; first compound 0.01 µM,0.76
same,relative viability,BEN; first compound 0.03162 µM,0.539
same,relative viability,BEN; first compound 0.1 µM,0.767
same,relative viability,BEN; first compound 0.3162 µM,0.835
same,relative viability,BEN; first compound 1 µM,0.651
same,relative viability,EKVX; first compound 0.01 µM,0.187
same,relative viability,EKVX; first compound 0.03162 µM,0.181
same,relative viability,EKVX; first compound 0.1 µM,0.178
same,relative viability,EKVX; first compound 0.3162 µM,0.207
same,relative viability,EKVX; first compound 1 µM,0.207
same,relative viability,HARA; first compound 0.01 µM,0.833
same,relative viability,HARA; first compound 0.03162 µM,0.469
same,relative viability,HARA; first compound 0.1 µM,0.764
same,relative viability,HARA; first compound 0.3162 µM,0.581
same,relative viability,HARA; first compound 1 µM,0.227
same,relative viability,HCC-366; first compound 0.01 µM,1.05
same,relative viability,HCC-366; first compound 0.03162 µM,1.07
same,relative viability,HCC-366; first compound 0.1 µM,1.73
same,relative viability,HCC-366; first compound 0.3162 µM,1.27
same,relative viability,HCC-366; first compound 1 µM,1.06
same,relative viability,HCC-827; first compound 0.01 µM,0.214
same,relative viability,HCC-827; first compound 0.03162 µM,0.206
same,relative viability,HCC-827; first compound 0.1 µM,0.177
same,relative viability,HCC-827; first compound 0.3162 µM,0.177
same,relative viability,HCC-827; first compound 1 µM,0.172
same,relative viability,LOU-NH91; first compound 0.01 µM,0.664
same,relative viability,LOU-NH91; first compound 0.03162 µM,0.746
same,relative viability,LOU-NH91; first compound 0.1 µM,0.824
same,relative viability,LOU-NH91; first compound 0.3162 µM,0.885
same,relative viability,LOU-NH91; first compound 1 µM,0.737
same,relative viability,NCI-H1355; first compound 0.01 µM,1
same,relative viability,NCI-H1355; first compound 0.03162 µM,0.897
same,relative viability,NCI-H1355; first compound 0.1 µM,1.2
same,relative viability,NCI-H1355; first compound 0.3162 µM,1.19
same,relative viability,NCI-H1355; first compound 1 µM,0.924
same,relative viability,NCI-H1395; first compound 0.03162 µM,0.93
same,relative viability,NCI-H1395; first compound 0.1 µM,1.07
same,relative viability,NCI-H1395; first compound 0.3162 µM,0.725
same,relative viability,NCI-H1395; first compound 1 µM,0.551
same,relative viability,NCI-H1437; first compound 0.01 µM,0.809
same,relative viability,NCI-H1437; first compound 0.03162 µM,0.841
same,relative viability,NCI-H1437; first compound 0.1 µM,0.906
same,relative viability,NCI-H1437; first compound 0.3162 µM,0.909
same,relative viability,NCI-H1437; first compound 1 µM,0.653
same,relative viability,NCI-H1734; first compound 0.01 µM,1.06
same,relative viability,NCI-H1734; first compound 0.03162 µM,1.2
same,relative viability,NCI-H1734; first compound 0.1 µM,1.39
same,relative viability,NCI-H1734; first compound 0.3162 µM,1.13
same,relative viability,NCI-H1734; first compound 1 µM,1.02
same,relative viability,NCI-H1792; first compound 0.01 µM,0.97
same,relative viability,NCI-H1792; first compound 0.03162 µM,0.886
same,relative viability,NCI-H1792; first compound 0.1 µM,1.21
same,relative viability,NCI-H1792; first compound 0.3162 µM,1.64
same,relative viability,NCI-H1792; first compound 1 µM,0.433
same,relative viability,NCI-H1993; first compound 0.01 µM,0.85
same,relative viability,NCI-H1993; first compound 0.03162 µM,0.719
same,relative viability,NCI-H1993; first compound 0.1 µM,0.774
same,relative viability,NCI-H1993; first compound 0.3162 µM,0.785
same,relative viability,NCI-H1993; first compound 1 µM,0.738
same,relative viability,NCI-H2009; first compound 0.01 µM,0.898
same,relative viability,NCI-H2009; first compound 0.03162 µM,0.971
same,relative viability,NCI-H2009; first compound 0.1 µM,0.956
same,relative viability,NCI-H2009; first compound 0.3162 µM,0.932
same,relative viability,NCI-H2009; first compound 1 µM,1.43
same,relative viability,NCI-H2087; first compound 0.01 µM,1.15
same,relative viability,NCI-H2087; first compound 0.03162 µM,0.99
same,relative viability,NCI-H2087; first compound 0.1 µM,1.23
same,relative viability,NCI-H2087; first compound 0.3162 µM,1.06
same,relative viability,NCI-H2087; first compound 1 µM,1.07
same,relative viability,NCI-H2170; first compound 0.01 µM,0.282
same,relative viability,NCI-H2170; first compound 0.03162 µM,0.269
same,relative viability,NCI-H2170; first compound 0.1 µM,0.298
same,relative viability,NCI-H2170; first compound 0.3162 µM,0.271
same,relative viability,NCI-H2170; first compound 1 µM,0.276
same,relative viability,NCI-H2405; first compound 0.01 µM,0.926
same,relative viability,NCI-H2405; first compound 0.03162 µM,1.05
same,relative viability,NCI-H2405; first compound 0.1 µM,1.16
same,relative viability,NCI-H2405; first compound 0.3162 µM,1.28
same,relative viability,NCI-H2405; first compound 1 µM,1.04
same,relative viability,NCI-H647; first compound 0.01 µM,1.22
same,relative viability,NCI-H647; first compound 0.03162 µM,1.25
same,relative viability,NCI-H647; first compound 0.1 µM,1.28
same,relative viability,NCI-H647; first compound 0.3162 µM,1.48
same,relative viability,NCI-H647; first compound 1 µM,0.493
same,relative viability,NCI-H661; first compound 0.01 µM,0.569
same,relative viability,NCI-H661; first compound 0.03162 µM,0.457
same,relative viability,NCI-H661; first compound 0.1 µM,0.432
same,relative viability,NCI-H661; first compound 0.3162 µM,0.502
same,relative viability,NCI-H661; first compound 1 µM,0.493
same,relative viability,SK-LU-1; first compound 0.01 µM,0.985
same,relative viability,SK-LU-1; first compound 0.03162 µM,0.975
same,relative viability,SK-LU-1; first compound 0.1 µM,0.947
same,relative viability,SK-LU-1; first compound 0.3162 µM,1.2
same,relative viability,SK-LU-1; first compound 1 µM,0.638
same,relative viability,SK-MES-1; first compound 0.01 µM,0.518
same,relative viability,SK-MES-1; first compound 0.03162 µM,0.456
same,relative viability,SK-MES-1; first compound 0.1 µM,0.542
same,relative viability,SK-MES-1; first compound 0.3162 µM,0.455
same,relative viability,SK-MES-1; first compound 1 µM,0.354
